One data set concerns the target T1, MMP-1 (Homo sapiens, UniProt P03956).
T1 construct: purchased abcam ab139443
T1 sequence (P03956 100-269 limits assumed): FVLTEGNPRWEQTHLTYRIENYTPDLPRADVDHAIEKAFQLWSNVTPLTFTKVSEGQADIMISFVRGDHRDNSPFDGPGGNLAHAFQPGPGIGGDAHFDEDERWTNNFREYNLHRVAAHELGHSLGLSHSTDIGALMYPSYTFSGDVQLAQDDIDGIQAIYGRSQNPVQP
The experiment in a line: MMP-1 inhibitory colorimetric assay (MMP1 Inhibitor Screening Assay Kit ab139443). In kind it is biochemical. Conditions: for IC50: colorimetric assay, A412nm, mean ± standard deviation of triplicated samples; for inhibitory activity against MMP-1 in words: at a 100 µM concentration. The protocol:
We next examined the inhibitory activity of the synthesized compounds 3–6 against MMP-1 using a colorimetric assay. This assay was performed using the MMP-1 Inhibitor Screening Assay Kit (ab139443) according to the manufacturer’s protocols. The reaction was started by the addition of the diluted MMP-1 substrate. The continuous absorbance of the wells was measured at A412nm using a microplate reader.
MMP-1 inhibitory assay was performed using the assay kit according to the manufacturer’s protocol. A 96-well clear microplate (1/2 volume), 30.6 U/µL of MMP-1 enzyme, MMP-1 substrate (25 mM in DMSO), and colorimetric assay buffer were contained in MMP1 Inhibitor Screening Assay Kit (ab139443, abcam). 2-[(2-Methylpropyl)[(4-methoxyphenyl)sulfonyl]amino]acetohydroximic acid (NNGH) was used as a positive control of an MMP-1 inhibitor. The MMP-1 substrate and DMSO solution of compound were thawed at room temperature. A compound (10 mM in DMSO) was diluted at 1/200 in assay buffer and brought to 37 °C. Also, the MMP-1 substrate was diluted at 1/200 in assay buffer and brought to 37 °C. The MMP-1 enzyme was diluted at 1/25 in assay buffer and warmed up to 37 °C as soon as the assay was started. After the assay buffer was pipetted appropriately into each well, 20 µL of the prepared MMP-1 enzyme solution and the desired concentration of test inhibitor solutions (20 µL; final concentrations: 0.1–100 µM) were added to the wells. The microplate was incubated for 30 min at 37 °C. The 10 µL of the prepared MMP-1 substrate solution was added into each well to allow the reaction start. The absorbance of the wells was measured at A412nm using a microplate reader every 1 min, and data analysis was performed.

Each structure is given as a SMILES string.

Turning to `C[C@H](C(=O)NO)N1CC[C@@](C)(c2ccc(C(F)(F)F)cc2)C1=O` [Compound 4, (R)-N-hydroxy-2-((S)-3-methyl-2-oxo-3-(4-(trifluoromethyl)phenyl)pyrrolidin-1-yl)propanamide], 0.18 ± 0.03 µM corresponded to half-maximal inhibition on MMP-1 (IC50). Moreover, at MMP-1 (ratio of IC50 values, compound 3 vs compound 4), the “fold higher MMP-1 inhibitory activity (fold lower IC50) of compound 4 relative to compound 3” value is 60 fold.
`C[C@H](C(=O)NO)N1CC[C@@](C)(c2ccc(-c3ccccc3)cc2)C1=O` [Compound 3, (R)-2-((S)-3-([1,1′-biphenyl]-4-yl)-3-methyl-2-oxopyrrolidin-1-yl)-N-hydroxypropanamide]: the melting point (as a rule, the temperature, or range, at which the solid turns liquid) was in the range of 160 to 162 °C. Also, the IC50 (as a rule, the concentration at which inhibition is half-maximal) at MMP-1 was determined as 11.5 ± 1.3 µM.
The compound `C[C@H](C(=O)NO)N1CC[C@](C)(c2ccc(-c3ccccc3)cc2)C1=O` [3′, (R)-2-((R)-3-([1,1′-biphenyl]-4-yl)-3-methyl-2-oxopyrrolidin-1-yl)-N-hydroxypropanamide] gave a melting point of 137 to 138 °C. Besides, on MMP-1, the “inhibitory activity against MMP-1 in words” value is on record as “did not display significant inhibitory activity” and the 50% inhibitory concentration (IC50) is greater than 100 µM.
Consider `C[C@H](C(=O)NO)N1CC[C@](C)(c2ccc(C(F)(F)F)cc2)C1=O` [4′, (R)-N-hydroxy-2-((R)-3-methyl-2-oxo-3-(4-(trifluoromethyl)phenyl)pyrrolidin-1-yl)propanamide], for which the melting point was in the range of 105 to 107 °C. For the same compound, on MMP-1, the “inhibitory activity against MMP-1 in words” value is “did not display significant inhibitory activity” and the IC50 was greater than 100 µM.
In turn, `C[C@H](C(=O)NO)N1CC[C@@](C)(c2cccc(C(F)(F)F)c2)C1=O` [Compound 6, (R)-N-hydroxy-2-((S)-3-methyl-2-oxo-3-(3-(trifluoromethyl)phenyl)pyrrolidin-1-yl)propanamide] yielded a 50% inhibitory concentration (IC50) on MMP-1 of 11.1 ± 0.5 µM.
In turn, `C[C@H](C(=O)NO)N1CC[C@@](C)(c2ccccc2)C1=O` [Compound 5, (R)-N-hydroxy-2-((S)-3-methyl-2-oxo-3-phenylpyrrolidin-1-yl)propanamide] had an IC50 on MMP-1 of 1.54 ± 0.08 µM.

Values taken from PMC7477548, “Prediction of an MMP-1 inhibitor activity cliff using the SAR matrix approach and its experimental validation” (Scientific Reports, 2020).
